Data reported in US7410945B2, “Treatment of inflammatory bowel disease” (The University of Queensland, priority 2002, dated 2008).
“Also recorded” adds a separate entry of the source.

Key:
[1] = system: TNBS-induced colitis in rats; assay: TNBS-induced colitis in rats, acute 24-hour study; type: in vivo, rat; conditions: for colon macroscopic score: scale 0-13
Method: Two time-frames were chosen for this study, an acute time frame (24 hours), and a chronic time frame (8-days). During the course of the study both body weight and food eaten were measured daily. In the 24-hour study, all drug treatments commenced 2 days prior to instillation of TNBS (prevention). PMX53-, prednisolone- and combination-treated rats were treated once daily, and C3a antagonist-treated rats were dosed twice daily. Rats treated with the anti-TNF-α monoclonal antibody, infliximab, were dosed intravenously on one occasion, 2 days prior to TNBS instillation.
Statistical significance was assessed at P<0.05.

[2] = system: TNBS-induced colitis in rats; assay: TNBS-induced colitis in rats, chronic 8-day study
Method: Male Wistar rats (250-300 g) were starved for 24 hours prior to being anaesthetised with ketamine (80 mg/kg i.p.) and xylazine (8 mg/kg i.p.). […] 120 mg/kg TNBS (50 mg/mL solution) along with 250 μL ethanol (100%) was then instilled to rats, which remained in the head-down position for 30 min to prevent leakage. Sham-operated rats (rats without colitis) received either saline alone or 250 μL ethanol and saline. Rats were then allowed to recover under observation.
At the completion of each experiment, rats were anaesthetized with zolazapam (50 mg/kg, IP) and xylazine (12 mg/kg, IP), and blood was collected and serum stored at −20° C. for later determination of TNF-α concentrations. Colons were dissected, and the distal 8-cm rinsed with saline and scored for clinical macroscopic damage by an independent blinded observer, using a scale of 0-13 as set out below (Bobin-Dubigeon et al, 2001). A section of the affected colon was then collected, weighed, placed in an 80° C. oven for 24 h, then reweighed and the wet-to-dry weight ratio determined as a measure of colon oedema (Rachmilewitz et al., 1989). A separate section of affected colon was also collected and homogenized with 1 mL phosphate buffered saline, sonicated for 20 seconds and centrifuged (14 000×g, 10 min). The resulting supernatant was then either stored (−20° C.) for later TNF-α determination, or used immediately in an assay for the determination of myeloperoxidase (MPO) levels. Briefly, the assay involved the addition of 20 μL substrate (o-dianisidine, 2.85 mg/mL, Sigma, U.S.A.; and 0.85% hydrogen peroxidase) to a 1:40 dilution of supernatant in phosphate buffered saline. […] Results for colon MPO content were converted to absorbance units/g tissue. Additional sections of colon were removed and stored in 10% formalin for histopathological analysis. Fixed colonic samples were embedded in paraffin wax, and sections were stained using a haematoxylin and eosin stain, photographed and examined by an independent observer in a blinded fashion. Tissue and serum TNF-α levels were determined from stored samples using an enzyme-linked immunoabsorbent assay as previously described (Arumugam et al, 2002), using undiluted samples. Results for colonic TNF-α content were then converted to pg TNF-α /g tissue.
In the 8-day study, drug-treated rats were treated both prior to colitis induction (2 days before; prevention) or following colitis induction (24 hours after; reversal).
All experimental results are expressed as means±standard error of the mean (SEM). Data analysis was performed using GraphPad Prism 3.0 software (GraphPad Software, Inc. USA). Statistical comparisons were made between drug-treated groups and colitis control animals using a one-way analysis of variance followed by a Dunnett comparison post-test analysis. Statistical significance was assessed at P<0.05.

C3a receptor = molecular target: T1, C3a receptor (Homo sapiens, UniProt Q16581); conditions: Finch et al, 1999; cited from earlier work
T1 sequence (Q16581 1-482): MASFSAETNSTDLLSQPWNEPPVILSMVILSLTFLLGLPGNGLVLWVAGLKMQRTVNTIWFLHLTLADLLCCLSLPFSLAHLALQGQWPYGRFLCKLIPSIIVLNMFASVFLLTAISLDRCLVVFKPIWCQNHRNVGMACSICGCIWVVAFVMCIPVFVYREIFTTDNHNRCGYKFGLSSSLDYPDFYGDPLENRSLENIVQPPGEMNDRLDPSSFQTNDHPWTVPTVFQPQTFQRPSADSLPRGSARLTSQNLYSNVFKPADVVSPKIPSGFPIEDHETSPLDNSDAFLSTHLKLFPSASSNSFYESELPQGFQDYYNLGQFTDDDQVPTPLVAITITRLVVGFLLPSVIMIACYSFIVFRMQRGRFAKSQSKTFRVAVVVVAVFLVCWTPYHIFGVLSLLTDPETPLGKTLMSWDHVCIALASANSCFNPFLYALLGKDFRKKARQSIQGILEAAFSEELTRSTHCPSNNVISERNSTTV

membrane attack complex = conditions: Arumugam et al, 2003; cited from earlier work
C5a receptor = conditions: cited from earlier work
[3] = 8 days, post-treated 1 mg/kg/day SC, P>0.05
[4] = 8 days, pre-treated 1 mg/kg/day SC, P<0.05
[5] = 8 days, pre-treated rats, haematoxylin and eosin sections, vs drug-free rats
[6] = post-treatment (from 24 h after colitis induction; reversal)
[7] = pre-treatment (from 2 days before colitis induction)
[8] = 24 h, drug pre-treatment, vs drug-free colitis control
[9] = 24 h, pre-treated 10 mg/kg/day oral or 0.3 mg/kg/day SC, P<0.05 vs colitis control
[10] = 8 days, prior to induction (10 mg/kg/day oral and 0.3 mg/kg/day SC) or 24 h after induction (1 and 10 mg/kg/day oral), P<0.05
[11] = 8 days, prior to induction (10 mg/kg/day oral and 0.3 mg/kg/day SC) or 24 h after induction (1 and 10 mg/kg/day oral), P<0.05, listed as C5a antagonist
[12] = 8 days, pre-treated 3 mg/kg IV, P<0.05

NC(N)=NCCC[C@H](NC(=O)COCC(c1ccccc1)c1ccccc1)C(=O)O [SB 290157, Ph2CHCH2OCH2CO-Arg-OH, reference compound]
colon oedema (wet-to-dry weight ratio) ([1]; 24 h, C3a antagonist 30 mg/kg bid IP, pre-treatment): did not have a significant effect | overall disease pathology / parameters measured ([1]; 24 h study): effective in reducing some of the parameters measured; also recorded: able to modulate the pathology of IBD | macroscopic damage ([1]; 24 h study, 30 mg/kg i.p. twice daily, vs colitis control): reduced the intensity of macroscopic damage

C[C@]12C=CC(=O)C=C1CC[C@@H]1[C@@H]2[C@@H](O)C[C@@]2(C)[C@H]1CC[C@]2(O)C(=O)CO [prednisolone]
colon histopathology ([2]; 8 days, post-treated 1 mg/kg/day SC, FIG. 8D): showed no improvement in disease pathology; also recorded: IC infiltration, E, extensive haemorrhage (H) and erosion of ML | colonic MPO levels [2, 3]: did not show any improvement in colonic MPO levels | colonic tissue TNF-α levels [2, 3]: no significant reduction | food consumption [2, 3]: no improvement in food consumption | colon oedema (wet-to-dry weight ratio) ([2]; 8 days, post-treatment 1 mg/kg/day SC): no effect on reducing oedema | mortality ([2]; 8 days, post-treatment (24 h after induction)): no significant effect on reducing mortality | mortality rate ([2]; 8 days, pre-treated 1 mg/kg/day SC): 11% | colonic MPO levels [2, 4]: significantly reduced colonic MPO levels | food consumption [2, 4]: ate significantly more food than colitis control rats | colon oedema (wet-to-dry weight ratio) ([2]; 8 days, pre-treated 1 mg/kg/day SC, P>0.05): no significant reductions | change in body weight ([2]; 8 days, pre-treated or post-treated 1 mg/kg/day SC, P>0.05): lost weight over the 8 days, with no significant difference compared to colitis control rats; also recorded: lost considerable body weight | colon histopathology [2, 5]: showed an improvement in pathology | colon macroscopic score ([2]; Day 8, post-treated 1 mg/kg/day SC, P>0.05): did not have any improvement in macroscopic scores | colon macroscopic score ([2]; Day 8, pre-treated 1 mg/kg/day SC, P<0.05): significantly improved macroscopic scores | overall disease parameters / markers [2, 6]: reversal of pathology was not seen; also recorded: no appreciable therapeutic effects | overall disease parameters / markers [2, 7]: only prednisolone pre-treated rats displayed any improvement in the disease parameters measured; also recorded: effective at reducing the majority of parameters measured

AcF-[OPdChaWR] [PMX53]
colon TNF-α levels ([1]; 24-hour study): significantly reduced | colon oedema ([1]; 24 h, drug pre-treatment, vs colitis control): significantly reduced | colon MPO levels (neutrophil accumulation) [1, 8]: significantly reduced | colon MPO levels [1, 9]: significant improvement | colon oedema (wet-to-dry weight ratio) [1, 9]: significant reduction in wet-to-dry weight ratios | colon macroscopic score [1, 8]: significantly lower colon macroscopic scores | food consumption ([1]; 24 h after TNBS, drug pre-treatment from 2 days before TNBS, vs drug-free colitis control): higher body weights and food intake | change in body weight ([1]; 24 h after TNBS, drug pre-treatment, vs drug-free colitis control): higher body weights | overall disease pathology / parameters measured ([1]; 24 h study): significantly improves disease pathology | binding to the C3a receptor (C3a receptor): does not bind | effect on the formation of the membrane attack complex (membrane attack complex): no effect | specificity for the C5a receptor over other related human receptors (C5a receptor; Finch et al, 1999): specific for the C5a receptor over other related human receptors | specificity for the C5a receptor across species (C5a receptor; human, rat and dog, Woodruff et al, 2001): specific for the C5a receptor in human, rat and dog | colon histopathology ([2]; 8 days, post-treated 10 mg/kg/day oral (PO), FIG. 8C): decrease in inflammatory cell accumulation and haemorrhage formation | colon histopathology ([2]; 8 days, post-treated 10 mg/kg/day oral (PO), FIG. 8C, listed as C5a antagonist): showed an improvement in disease pathology; also recorded: IC infiltration and E, but with intact ML | deaths ([2]; 8 days, pre-treated 0.3 mg/kg SC): no deaths | colon histopathology [2, 5]: showed an improvement in pathology | colon oedema (wet-to-dry weight ratio) [2, 10]: significantly lower | colonic MPO levels (neutrophil accumulation) [2, 10]: significantly lower | colon oedema (wet-to-dry weight ratio) [2, 11]: significant improvement in colon wet-to-dry weight ratios; also recorded: significant reductions in wet-to-dry weight ratios | colonic MPO levels (neutrophil accumulation) [2, 11]: reduced to similar levels to those of the sham-operated animals | mortality rate ([2]; 8 days, prior to induction (10 mg/kg/day oral and 0.3 mg/kg/day SC) or 24 h after induction (1 or 10 mg/kg/day oral)): ≤ 20% | food consumption ([2]; 8 days, prior to induction (10 mg/kg/day oral and 0.3 mg/kg/day SC) or 24 h after induction (1 or 10 mg/kg/day oral), P<0.05): ate significantly more food | food consumption ([2]; 8 days, prior to induction (10 mg/kg/day oral and 0.3 mg/kg/day SC) or 24 h after induction (1 or 10 mg/kg/day oral), P<0.05, listed as C5a antagonist): ate significantly more food than colitis control rats | change in body weight ([2]; 8 days, prior to induction (10 mg/kg/day oral and 0.3 mg/kg/day SC) or 24 h after induction (1 or 10 mg/kg/day oral), P<0.05 vs colitis control): lost significantly less body weight | change in body weight ([2]; 8 days, prior to induction (10 mg/kg/day oral and 0.3 mg/kg/day SC) or 24 h after induction (1 or 10 mg/kg/day oral), P<0.05 vs colitis control, listed as C5a antagonist): gained significant weight; also recorded: gained substantial weight over the 8 days, with significantly higher weights compared to colitis control rats | colon macroscopic score ([2]; Day 8, prior to induction (10 mg/kg/day oral and 0.3 mg/kg/day SC) or 24 h after induction (1 or 10 mg/kg/day oral), P<0.05): significantly lower colon macroscopic scores | colon macroscopic score ([2]; Day 8, prior to induction (10 mg/kg/day oral and 0.3 mg/kg/day SC) or 24 h after induction (1 or 10 mg/kg/day oral), P<0.05, listed as C5a antagonist): significantly improved macroscopic scores | colonic tissue TNF-α levels ([2]; after 8 days, vs drug-free colitis control, P<0.05): significantly lower | mortality ([2]; over 8 days, vs drug-free colitis control (39%)): reduced mortality | overall disease parameters / markers [2, 6]: significant reduction in all disease markers | overall disease parameters / markers [2, 7]: markedly reduced all the disease markers measured | overall disease pathology ([2]; rat model of chronic colitis, pre- and post-treatment): both prevents and reverses disease pathology

infliximab
colon macroscopic score [1, 8]: significant improvement seen in all treatment groups except for infliximab | colonic MPO levels [2, 12]: significantly reduced colonic MPO levels | food consumption [2, 12]: ate significantly more food than drug-free rats | colon oedema (wet-to-dry weight ratio) ([2]; 8 days, pre-treated 3 mg/kg IV, P>0.05): no significant reductions | colon histopathology [2, 5]: showed an improvement in pathology | mortality ([2]; 8 days, pre-treatment 3 mg/kg IV): 20% | colon macroscopic score ([2]; Day 8, pre-treated 3 mg/kg IV, P<0.05): significantly decreased scores | change in body weight ([2]; Day 8, pre-treated 3 mg/kg IV, P>0.05): only a small weight gain at Day 8; however, these levels were not significantly higher than colitis control rats | overall disease parameters / markers [2, 7]: did reduce the severity of lesions, it was not as effective as the C5a antagonist or prednisolone | overall disease parameters / markers ([2]; pre-treatment (from 2 days before colitis induction), listed as Infliximab): significantly reduced disease parameters, however to a lesser extent than those observed in PMX53-treated rats
